According to patent US20230286943A1, “IL-17A MODULATORS” (SANOFI, priority 2020, published 2023):
Marks after values point to notes of the source that are not given here.

Target: human recombinant IL-17A (Homo sapiens (Human), UniProt Q16552)
Assay: IL-17A AlphaLISA Assay (competition: block binding of IL-17A to its receptor IL-17RA)
Method: The ability of the compounds to block binding of IL-17A to its receptor, IL-17RA, was analysed in a competition assay using AlphaLISA technology (Perkin Elmer). The assay is a bead based AlphaLISA where the IL-17RA is captured on the acceptor bead via an Fc tag and IL-17A is captured on the streptavidin donor bead via a biotinylated anti-IL-17A antibody.
Assay buffer was prepared by adding 0.05% Tween-20 (v/v) and 0.1% BSA to Phosphate Buffered Saline (PBS). The assay was carried out in 384-well white low volume plates (Corning 4512). 10 μL of a 7.5 nM stock of human recombinant IL-17A (R&D Systems 7955-IL/CF) diluted in assay buffer was dispensed into the assay plate and compounds or DMSO vehicle control were added in a volume of 75 nL using a D300 dispenser (Hewlett Packard). The compounds were pre-incubated with the IL-17A for 24 h at room temperature (or for 30 min, where indicated by * in Table A below) prior to addition of 5 μL of a 5 nM stock of human recombinant IL-17RA/Fc chimera (R&D Systems 177-IR-100) diluted in assay buffer. The IL-17A was incubated with the receptor for a further 90 minutes at room temperature before addition of 5 μL of a mixture of anti-human Fc IgG acceptor beads (75 μg/mL, Perkin Elmer AL103C) and anti-IL-17A biotin conjugated antibody (5 nM, Enzo Life Sciences, ENZ-ABS278-0100) in assay buffer. After a further 30 min incubation at room temperature, 5 μL of streptavidin donor beads (75 μg/mL, Perkin Elmer 6760002S) were added and the plate was incubated for 3 h in the dark.
The luminescence signal was measured using an Enspire plate reader (Perkin Elmer) with excitation at 680 nm and emission at 615 nm. Data were analysed using GraphPad Prism and fitted to a 4-parameter logistic equation. The IC50 values were calculated using the DMSO vehicle as the negative control and a high concentration (6 μM) of a reference IL-17A inhibitor as the positive control.
Activity of the Example compounds is reported as a pIC50 value in Table A.

[1] = compounds pre-incubated with IL-17A for 30 min (indicated by *)

Chain of human recombinant IL-17A (Q16552 24-155): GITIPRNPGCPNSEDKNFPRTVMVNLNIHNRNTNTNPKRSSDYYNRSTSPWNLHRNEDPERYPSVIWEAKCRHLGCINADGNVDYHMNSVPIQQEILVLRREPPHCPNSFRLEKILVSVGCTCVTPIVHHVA

AlphaLISA pIC50 (compounds pre-incubated with IL-17A for 24 h at room temperature) | AlphaLISA pIC50 [1] | Compound
– | 6.1* | Cc1cnn(C)c1-c1ccc(NC(=O)[C@@H](NC(=O)c2ccnn2C)C2CCCC2)nc1 [Example 102, (S)-N-(1-cyclopentyl-2-((5-(1,4-dimethyl-1H-pyrazol-5-yl)pyridin-2-yl)amino)-2-oxoethyl)-1-methyl-1H-pyrazole-5-carboxamide]
– | 6.8* | CCn1nccc1C(=O)N[C@H](C(=O)Nc1cnc(-c2c(C)cnn2C)c(F)c1)[C@H]1CC[C@H](C)CC1 [Example 108, N-((S)-2-((6-(1,4-dimethyl-1H-pyrazol-5-yl)-5-fluoropyridin-3-yl)amino)-1-((1 r,4S)-4-methylcyclohexyl)-2-oxoethyl)-1-ethyl-1H-pyrazole-5-carboxamide]
– | 6.0* | Cc1nsc(C)c1-c1ccc(NC(=O)[C@@H](NC(=O)c2cnnn2C)[C@H]2CC[C@H](C)CC2)nc1 [Example 116, N-((S)-2-((5-(3,5-dimethylisothiazol-4-yl)pyridin-2-yl)amino)-1-((1r,4S)-4-methylcyclohexyl)-2-oxoethyl)-1-methyl-1H-1,2,3-triazole-5-carboxamide]

Further lines, the compound ahead of its results:

Compound | AlphaLISA pIC50 (compounds pre-incubated with IL-17A for 24 h at room temperature) | AlphaLISA pIC50 [1]
Cc1c(-c2ccc(NC(=O)[C@@H](NC(=O)c3ccnn3C)[C@H]3CC[C@H](C)CC3)nc2)ccc(=O)n1C [Example 8, N-((S)-2-((1′,2′-Dimethyl-6′-oxo-1′,6′-dihydro-[3,3′-bipyridin]-6-yl)amino)-1-((1 r,4S)-4-methylcyclohexyl)-2-oxoethyl)-1-methyl-1H-pyrazole-5-carboxamide] | 6.0 | –
Cc1c(-c2ccc(NC(=O)[C@@H](NC(=O)c3ccnn3C)C3CCC(F)(F)CC3)cc2)ccc(=O)n1C [Example 20, (S)-N-(1-(4,4-Difluorocyclohexyl)-2-((4-(1,2-dimethyl-6-oxo-1,6-dihydropyridin-3-yl)phenyl)amino)-2-oxoethyl)-1-methyl-1H-pyrazole-5-carboxamide] | – | 6.0*
Cc1c(-c2ccc(NC(=O)[C@@H](NC(=O)c3ccnn3C)C3CCC(C)(C)CC3)cc2)ccc(=O)n1C [Example 21, (S)-N-(2-((4-(1,2-Dimethyl-6-oxo-1,6-dihydropyridin-3-yl)phenyl)amino)-1-(4,4-dimethylcyclohexyl)-2-oxoethyl)-1-methyl-1H-pyrazole-5-carboxamide] | – | 6.0*
Cc1nnn(C)c1-c1ccc(NC(=O)[C@@H](NC(=O)c2ccnn2C)[C@H]2CC[C@H](C)CC2)nc1 [Example 44, N-((S)-2-((5-(1,4-Dimethyl-1H-1,2,3-triazol-5-yl)pyridin-2-yl)amino)-1-((1r,4S)-4-methylcyclohexyl)-2-oxoethyl)-1-methyl-1H-pyrazole-5-carboxamide] | – | 6.8*
CCn1nccc1C(=O)N[C@H](C(=O)Nc1ccc(-c2c(C)c[n+]([O-])cc2C)cn1)[C@H]1CC[C@H](C)CC1 [Example 58, 6-((S)-2-(1-Ethyl-1H-pyrazole-5-carboxamido)-2-((1 r,4S)-4-methylcyclohexyl)acetamido)-3′,5′-dimethyl-[3,4′-bipyridine]1′-oxide] | – | 6.9*
COc1c(-c2ccc(NC(=O)[C@@H](NC(=O)c3ccnn3C)[C@H]3CC[C@H](C)CC3)nc2)ccnc1C [Example 70, N-((S)-2-((3′-methoxy-2′-methyl-[3,4′-bipyridin]-6-yl)amino)-1-((1r,4S)-4-methylcyclohexyl)-2-oxoethyl)-1-methyl-1H-pyrazole-5-carboxamide] | – | 6.1*
Cc1cnn(C)c1-c1ncc(NC(=O)[C@@H](NC(=O)c2ccnn2C)[C@H]2CC[C@H](C)CC2)cc1F [Example 98, N-((S)-2-((6-(1,4-dimethyl-1H-pyrazol-5-yl)-5-fluoropyridin-3-yl)amino)-1-((1 r,4S)-4-methylcyclohexyl)-2-oxoethyl)-1-methyl-1H-pyrazole-5-carboxamide] | – | 6.3*
